Assay results taken from US20180155737A1, “METHOD FOR MODULATING PLANT ROOT ARCHITECTURE” (priority 2012, published 2018).
“Also recorded” adds a separate entry of the source. Square brackets hold non-standard residues; d marks the D form. Ends that are not written are not given here. Hyp = O=C(O)[C@@H]1C[C@@H](O)CN1

What was measured:
[1] = system: M. truncatula root nodulation by S. meliloti; assay: Nodulation with S. meliloti of peptide-treated M. truncatula plants; type: in vivo, Medicago truncatula
Text: The 3-weeks old transformed hairy-roots plants were first transferred to a modified Fahraeus media without […] and kanamycin to starve the plants of nitrogen for 4 days. Inoculation with Sinorhizobium meliloti was done as described in Saur I M, Oakes M, Djordjevic M A, & Imin N (2011), “Crosstalk between the nodulation signaling pathway and the autoregulation of modulation in Medicago truncatula”, New Phytol 190(4):[…].
(§1) (b) partial nitrate tolerance of nodule development induced by WSM1022 on MtRAR1 over-expressing plants. Three weeks old composite plants were inoculated and scored two weeks post inoculation. N≥30. student's t-test; *; P<0.05; **; P<0.01; ***; P<0.001. (e) Acetylene reduction assay. MtRAR1 treated (1 μM) and non treated wild-type plants grown in Fåhraeus medium were harvested at 2 week post inoculation by S. meliloti WSM1022. Nitrogenase activity was calculated from peak areas of samples relative to acetylene and ethylene standards to obtain nmoles ethylene/min. N≥3, student's t-test; *: P<0.05; **: P<0.01. Error bars indicate SE. (d) Inoculation of plants with performed CCPs led to root nodule formation at CCP sites at 25 mM KNO3. Arrow head: CCP sites: Arrows: nodules. […] Scale bar: 100 μm. Plants were grown at 20° C.
FIG. 32 M. truncatula plants were grown in 0.8% agar-containing plates supplemented with F media with or without MtRAR1 peptide. Five-day old seedlings were inoculated with S. meliloti strain WSM1022 and further grown for two mom weeks. MtRAR1 Domain 1: AFQ(P)TTPGNS(P)GVGH: MtRAR1 Domain 1 with G−>A transition: AFQ(P)TTPANS(P)GVGH. (P) is hydroxylproline and the altered amino acid is underlined.

M. truncatula roots = assay: Exogenous application of synthetic RAR peptides to M. truncatula roots (lateral roots, CCP sites/bumps, root growth); type: in vivo, Medicago truncatula; conditions: for Periodic bump (CCP site) formation: synthetic peptide applied to roots
Procedure: Seeds of M. truncatula cv Jemalong genotype A17 wild-type and M. truncatula 2HA line carrying either GH3 promoter-GUS reporter fusion gene (GH3:GUS) were grown under standard conditions (Holmes P, Goffard N, Weiller G F, Rolfe B G, & Imin N (2008), “Transcriptional profiling of Medicago truncatula meristematic root cells”, BMC Plant Biol 8:21).
The RAR peptides were synthesized at the Biomolecular Resource Facility, The Australian National University. The 15 amino acid (aa) peptides corresponding to the conserved domains of MtRAR1 (AFQHypTTPGNSHypGVGH and […]ypGVGH, where Hyp indicates hydroxy proline residue) and M. hapla MhRAR2 (AFRHypTAPGHSHypGVGH) were synthesized and validated as previously described in Djordjevic M A. et al. (2011), “Border sequences of Medicago truncatula CLE36 are specifically cleaved by endoproteases common to the extracellular fluids of Medicago and soybean”. J Exp Bot 62(13):4649-4659. The root length of wild-type plants was measured four days after transfer to Fåhraeus-medium containing the synthetic peptide. For the hormone assays, A17 plants were grown on Fåhraeus-medium for 10 days before transferring to Fåhraeus-medium containing 10^−6 M of the respective phytohormones; 1-aminocyclopropant-1-carboxylic acid (ACC), 6-benzylaminopurine (BAP), gibberallic acid (GA), synthetic analog of strigolactone (GR24), methyljasmonate (MeJA) and 1-naphthaleneacetic acid (NAA).

[2] = system: microtom tomato seedlings; assay: Plate assay, lateral root formation on microtom tomato seedlings; type: in vivo; conditions: 1 μM peptide
Procedure: The plants were grown so 0.8% agar-containing plates supplemented with F media with or without peptides for two weeks. The media contained 5 mM KNO3. MtRAR1 peptide: […] where (P) is hydroxyproline. Students' t-test, **: P<0.01; N>12. Error bars represent SE.
The plants were grows in 0.8% agar-containing plates supplemented with F media with or without peptides for two weeks. The medium contained 5 mM KNO3. MtRAR1 peptide: FQ(P)TTPGNS(P)GVGH where (P) is hydroxyproline.
Primary root length was not affected (FIG. 6).

[3] = system: white clover (Trifolium repens); assay: Lateral root formation of plants grown in magenta jars with peptide; type: in vivo; conditions: 1 μM peptide
Procedure: (§2) M. truncatula, M. sativa, Subterranean Clover Cultivar Woogenellup and white clover (Trifolium repens) plants were grown in 0.4% agar-containing magenta jars supplemented with F media with or without peptides for two weeks. The media contained 5 mM KNO3. MtRAR1 peptide: FQ(P)TTPGNS(P)GVGH where (P) is hydroxyproline. Students' t-test *: P<0.05; **; P<0.01; ***: P<0.001; N>12. Error bars represent SE.
The plants were grown in 0.4% agar-containing magenta jars supplemented with F medium with on without peptides for two weeks. The media contained 5 mM KNO3. MtRAR1 peptide: […] where (P) is hydroxyproline.
(§3) To further validate and exemplify the RAR technology, we have examined RAR peptide addition of roots of various plant species.

Lucerne (M. sativa) = assay: as above; type: in vivo; conditions: 1 μM peptide
Procedure: as §2
The plants were grown in 0.4% agar-containing magenta jars supplemented with F media with or without peptides for two weeks. The medium contained 5 mM KNO3. MtRAR1 peptide: FQ(P)TTPGNS(P)GVGH where (P) is hydroxyproline.
as §3

Nitrogenase activity = assay: Acetylene reduction assay (nitrogenase activity) of plants inoculated with S. meliloti WSM1022; type: in vivo, Medicago truncatula; conditions: 1 μM peptide
Procedure: as §1

M. truncatula = assay: Lateral root formation of plants grown in magenta jars with peptide; type: in vivo, Medicago truncatula; conditions: 1 μM peptide, 5 mM KNO3, two weeks, P<0.05
Procedure: as §2, §3

[4] = system: Subterranean Clover Cultivar Woogenellup; assay: as above; type: in vivo; conditions: 1 μM peptide
Procedure: as §2
The plants were grows in 0.4% agar-containing magenta jars supplemented with F media with or without peptides for two weeks. The media contained 5 mM KNO3. MtRAR1 peptide: FQ(P)TTPGNS(P)GVGH where (P) is hydroxyproline.
as §3

[5] = system: Arabidopsis thaliana WT Col plants; assay: RAR bioactivity in Arabidopsis at different concentrations; type: in vivo
Procedure: To investigate the effect of different modifications on peptide bioactivity, several peptides were assayed for activity at different concentrations (Table 4), WT Col plants were grown vertically on ½ MS plates with 1% phytagel and containing varying concentration of RAR peptide ranging from 10^−6 M to 10^−12 M or no peptide. Plates were imaged at 12 days.

[6] = system: Arabidopsis thaliana WT Col plants; assay: Time course of RAR action in Arabidopsis over 12 days; type: in vivo; conditions: 1 μM
Procedure: To see how RAR was exerting its effect on PR growth and lateral root emergence and growth, a time course was performed over 12 days, WT Col plants were grown vertically on ½ MS with 1% phytagel and 1 μM RAR6 hyP or no peptide, with 16 hr days at 22° C. Plates were scanned every day for 12 days.

[7] = system: Arabidopsis thaliana WT Col plants; assay: Rescue: transfer of Arabidopsis plants between RAR and no RAR plates; type: in vivo
Procedure: To investigate whether the effect of RAR peptide addition could be released, WT Col plants were grown vertically for 6 days on […] plates with 1% phytagel. Plants were transferred from plates containing no RAR or 1 μM RAR6 hyP peptide (pre-treatment) to plates containing no RAR or 1 μM RAR6 hyP peptide as specified where they were left to grow for a further 6 days before being analysed.

rice seedlings = assay: Liquid culture (half strength MS), root formation of rice seedlings; type: in vivo; conditions: 1 μM peptide
Procedure: The plants were grown in liquid media containing half strength MS media with or without peptides for two weeks. Monocot RAR peptide: DTRATDFGHS(P)GAGH where (P) is hydroxyproline. Students' t-test, *: P<0.05; N>6. Error bars represent SE.
The plants were grown in liquid media containing half strength MS media with or without peptides for two weeks. Monocot RAR peptide: DTRATDPGHS(P)GAGH where (P) is hydroxyproline:
Primary root length was also affected (FIG. 23).

soybean seedlings = assay: Liquid culture, root formation of soybean seedlings; type: in vivo; conditions: 1 μM peptide
Procedure: The plants were grown in liquid supplemented with F medium with or without peptides for two weeks. The medium contained 5 mM KNO3. GmRAR peptide: NFR(P)TAPGHS(P)GVGH where (P) is hydroxyproline. Students' t-test, **; P<0.01; N>6. Error bars represent SE.
The plants were grown in liquid supplemented with F medium with or without peptides for two weeks. The media contained 5 mM KNO3. GmRAR peptide: […] where (P) is hydroxyproline.
Primary root length was also affected (FIG. 21).

[8] = range tested 10^−6 M to 10^−12 M, 12 days

AFQ(P)TTPANS(P)GVGH [MtRAR1 Domain 1 with G−>A transition]
Nodule numbers ([1]; 1 μM peptide, 5 mM and 25 mM KNO3, trend = significant increase as with MtRAR1 over-expression): non-functional | Inhibition of lateral root emergence (structure activity relationship of peptide variants) (M. truncatula roots; compared with MtRAR1 peptide): greatly attenuated

AFQ[Hyp]TTPGNS[Hyp]GVGH [MtRAR1 peptide]
Primary root length [2]: not affected | Number of lateral roots ([2]; 5 mM KNO3, two weeks, P<0.05): reduction | CCP (bump) site formation [3]: formed CCP | Lateral root emergence ([3]; 5 mM KNO3, two weeks, P<0.05): significantly inhibited | CCP (bump) site formation (Lucerne (M. sativa)): formed CCP | Lateral root emergence (Lucerne (M. sativa); 5 mM KNO3, two weeks, P<0.05): significantly inhibited | Increase in nitrogenase activity (Nitrogenase activity; 0 mM KNO3, 2 week post inoculation): 35% | Increase in nitrogenase activity (Nitrogenase activity; 5 mM KNO3, 2 week post inoculation): 200% | Numbers of pink functional nodules ([1]; 1 μM peptide, 5 mM and 25 mM KNO3, compared to controls): significantly higher numbers | Nodule development (nodule sections) ([1]; 0.5 mM or 25 mM KNO3, three weeks, versus untreated plants): accelerated nodule development | Nodule size ([1]; all across the nitrate regimen, versus no peptide or G->A peptide): much larger | Lateral root emergence (M. truncatula): significantly inhibited | CCP (bump) site formation [4]: formed CCP | Lateral root emergence ([4]; 5 mM KNO3, two weeks, P<0.05): significantly inhibited | Main root growth (M. truncatula roots; 10^−6 M peptide): significantly inhibited | Lateral root formation (M. truncatula roots; A17 plants, F medium containing 25 mM KNO3, 10^−6 M peptide): significantly reduced | Concentration for dose-dependent inhibition of lateral root emergence (M. truncatula roots; in vivo): greater than 10^−7 M | Periodic bump (CCP site) formation (M. truncatula roots): Maximum CCP site generation; also recorded: Periodic bumps

AFR[Hyp]TAPGHS[Hyp]GVGH [MhRAR2]
Periodic bump (CCP site) formation (M. truncatula roots): Maximum CCP site generation; also recorded: Periodic bumps

D F R hyP T (p-T) P G H S hyP G I G H [RAR6 phos]
Activity relative to the non-phosphorylated RAR6 peptide ([5]; in vivo): 1000 × | Concentration range at which the peptide is active (in words) [5, 8]: picomolar

D F R hyP T T P G H S hyP G I G H [RAR6 hyP]
PR length, treated versus untreated ([6]; 2 days post imbibing): no significant difference | PR length, treated versus untreated ([6]; from day 3 onwards): significantly shorter | Number of lateral roots, treated versus untreated ([6]; scanned every day for 12 days): not significantly different until day 8 | Primary root length of plants pre-treated with RAR and transferred to no RAR versus plants exposed to RAR continuously ([7]; 1 μM, 6 + 6 days, p<0.05): significantly higher | Number of lateral roots after transfer to no RAR, by pre-treatment ([7]; 6 days pre-treatment with 1 μM or no RAR, then 6 days no RAR): the same

D F V P T S P G N S P G V G H (DFVPTSPGNSPGVGH) [RAR5 no HyP]
Concentration at which the peptide is active [5, 8]: 10^−9 M

D F V hyP T (p-S) P G N S hyP G V G H [RAR5 phos]
Effect of phosphorylation on activity ([5]; Arabidopsis RAR5): enhances activity

D F V hyP T S P G N S hyP G V G H [RAR5 hyP]
Concentration at which the peptide is active [5, 8]: 10^−8 M

DTRATDPGHS(P)GAGH [Monocot RAR peptide]
Primary root length (rice seedlings): affected | Number of roots (rice seedlings; liquid half strength MS, two weeks, P<0.05): reduction

NFR(P)TAPGHS(P)GVGH [GmRAR peptide]
Primary root length (soybean seedlings): affected | Number of roots (soybean seedlings; liquid F medium, 5 mM KNO3, two weeks, P<0.05): reduction
